Data: ChEMBL document CHEMBL1151492, “elastase inhibitors containing conformationally restricted lactams as P3-P2 dipeptide replacements” (Bioorg Med Chem Lett, 1993)
Several values for one entry are separate records, joined by “and”; a condition that tells them apart may be missing. Equal entries are not always repeated.

Columns and labels:
Neutrophil elastase = biological target: T1, Neutrophil elastase (Homo sapiens, UniProt P08246); test: In vitro inhibitory activity against human leukocyte elastase
T1 sequence (P08246 whole entry): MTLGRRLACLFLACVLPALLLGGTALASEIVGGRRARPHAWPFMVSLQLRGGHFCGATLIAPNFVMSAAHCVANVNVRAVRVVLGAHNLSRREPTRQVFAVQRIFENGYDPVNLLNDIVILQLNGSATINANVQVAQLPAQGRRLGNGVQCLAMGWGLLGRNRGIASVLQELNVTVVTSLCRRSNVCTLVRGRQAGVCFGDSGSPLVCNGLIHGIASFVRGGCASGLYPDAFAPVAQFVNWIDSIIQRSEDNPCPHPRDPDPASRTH

Cricetinae gen. sp. = test: Effective dose required to inhibit elastase induced pulmonary hemorrhage (EPH) lung model in hamsters; type: functional, Cricetulus griseus

Row | Compound | IC50 (Neutrophil elastase) | ED50 (Cricetinae gen. sp.)
1 | CC(C)C(NC(=O)CN1C(=O)[C@@H](NC(=O)c2ccc(C(=O)NS(=O)(=O)c3ccc(Cl)cc3)cc2)C[S+]([O-])c2ccccc21)C(=O)C(F)(F)F (stereo not given in full) | 6.8 µM and 6.2 µM | 
2 | CC(C)C(NC(=O)CN(C(=O)[C@@H](NC(=O)c1ccc(C(=O)NS(=O)(=O)c2ccc(Cl)cc2)cc1)C(C)C)C1Cc2ccccc2C1)C(=O)C(F)(F)F (stereo not given in full) |  | 4.8 µM

Further lines, with some results ahead:

Row | IC50 (Neutrophil elastase) | Compound | ED50 (Cricetinae gen. sp.)
3 | > 5 µM | CC(C)C(NC(=O)CN1CCCC[C@H](NC(=O)c2ccc(C(=O)NS(=O)(=O)c3ccc(Cl)cc3)cc2)C1=O)C(=O)C(F)(F)F (stereo not given in full) | 
4 | > 5 µM | CC(C)C(NC(=O)CN1CCC[C@H](NC(=O)c2ccc(C(=O)NS(=O)(=O)c3ccc(Cl)cc3)cc2)C1=O)C(=O)C(F)(F)F (stereo not given in full) | 
5 | > 5 µM | CC(C)C(NC(=O)CN1CC[C@H](NC(=O)c2ccc(C(=O)NS(=O)(=O)c3ccc(Cl)cc3)cc2)C1=O)C(=O)C(F)(F)F (stereo not given in full) | 
